Experimental data as given in patent EP4667628A1, “SYNTHETIC LETHALITY TO TREAT AUTOSOMAL DOMINANT POLYCYSTIC KIDNEY DISEASE (ADPKD)” (Albert-Ludwigs-Universität Freiburg Körperschaft des …, priority 2024, dated 2025).
Like-named read-outs stand apart in the source and are kept apart here.

Tests used:
[1] = tested on: isogenic wildtype mIMCD-3 cells; assay: Luminescence-based ATP-dependent cell viability assay (CellTiter-Glo 2.0), dose-response, isogenic wildtype counter screen; details: Mus musculus
Protocol: (§1) Subculturing of cells was performed twice a week in a 1:10 ratio. Cells were maintained in a humidified incubator at 37°C and 5% CO2. […] The term "wild-type" is used for mIMCD-3 cells that were not edited by CRISPR-Cas9. The original cell line obtained from ATCC was generated from inner medullary collecting ducts of a SV-40 transgenic mouse.^13
(§2) Prior to genome editing, a monoclonal starting cell line was generated by a single cell sorting step.
(§3) After 72 hours cell density was checked with an inverted microscope (Zeiss Axiovert 40CFL). Cells were washed with 10 ml phosphate buffered saline (PBS). […] 10 ml DMEM:F12 with 10% FBS and 1% penicillin/streptomycin were added, cell detachment was facilitated by pipetting up and down multiple times. […] Cell density was diluted to 400,000 cells/ml for each genotype. […] Basins of 1536 well plates were filled with 25 µl (vertical basins) or 40 µl (horizontal basins) H2O in order to prevent evaporation induced edge effects. Confluency was checked after 24 hours with an Evos M5000 imaging system (Invitrogen).
(§4) For the secondary screen and validation experiments, source plates were generated with compounds in 1:2 dilutions allowing for the generation of dose-response-curves. 30 nl of compounds per well were transferred in secondary screen and validation experiments. […] The volume of transferred DMSO was adjusted according to the transferred compound volume. […] After compound transfer, plates were centrifuged (Multifuge 3 s-r, Heraeus) for 10 seconds (1,000 rpm). […] Plates were stored in incubators at 37°C and 5% CO2 for 72 hours. A maximum of two plates was stacked in the incubator. Source plates were sealed with an Agilent Technologies Plateloc heat sealer. Prior to compound transfer source plates were centrifuged (4,200 rpm, 1 min). Sealing was removed with a Brooks XPeel device.
(§5) After 72 hours of compound incubation, plates were allowed to adapt to room temperature for 20 minutes. […] The luminescence signal was allowed to stabilize for 20 min. Luminescence was scanned with a BMG Labtech Pherastar FSX luminescence reader with a measurement interval time of 0.16 s per well. A 1536-well plate adapted aperture was used to minimize cross-talk. Data analysis was performed with GraphPad Prism (version 9). Dose- and genotype-dependent differences in viability were checked for statistical significance by performing a two-way ANOVA (α = 0.05). Difference in protein abundance analyzed by western blot were checked for statistical significance by performing a student's t-test (α = 0.05).

[2] = tested on: second independent PKD1 KO clone (#2); assay: Luminescence-based ATP-dependent cell viability assay (CellTiter-Glo 2.0), dose-response, PKD1 knockout clone #2; details: Mus musculus
Protocol: as §1, §2, §3, §4, §5

[3] = tested on: monoclonal PKD1 KO mIMCD-3 cell line (clone #1); assay: Luminescence-based ATP-dependent cell viability assay (CellTiter-Glo 2.0), dose-response, PKD1 knockout clone #1; set-up: species or system mouse; details: for IC50: Mus musculus; for effect sizes: further MEK-inhibitors tested, PKD1-deficient cells compared to wildtype cells
Protocol: as §1, §2, §3, §4, §5

[4] = mIMCD3, 72 h, read-out: IC50 wildtype (µM)
[5] = mIMCD3, 72 h, read-out: IC50 PKD1-/- (clone 2) (µM)
[6] = mIMCD3, 72 h, read-out: IC50 PKD1-/- (clone 1) (µM)
[7] = mIMCD3, isogenic wildtype mIMCD-3 control cells, 72 hours compound incubation, read-out: IC50 wildtype
[8] = mIMCD3, mIMCD-3 PKD1 knockout clone 2, 72 hours compound incubation, IC50 = concentration that kills 50% of the cells, read-out: IC50 PKD1-/- (clone 2)
[9] = mIMCD3, mIMCD-3 PKD1 knockout clone 1, 72 hours compound incubation, IC50 = concentration that kills 50% of the cells, read-out: IC50 PKD1-/- (clone 1)

SMILES | IC50 [1, 4] | IC50 [2, 5] | IC50 [3, 6] | IC50 [1, 7] | IC50 [2, 8] | IC50 [3, 9] | effect sizes [3]
O=C1C2=C(C(=O)c3ccccc31)[C@H]1Oc3ccccc3[C@H]1CO2 [Number 15, Pterocarpanquinone ((2S,10S)-3,12-dioxapentacyclo[11.8.0.02,10.04,9.015,20]henicosa-1(13),4,6,8,15,17,19-heptaene-14,21-dione)] | 4.45 µM | 2.8 µM | 3.54 µM |  |  |  | 
Cn1c(=O)c(F)c(Nc2ccc(I)cc2F)c2c(=O)n(C[C@@H](O)CO)cnc21 [Number 25] |  |  |  | 41.9 µM | 9.51 µM | 16.9 µM | 
COc1ccc(Cc2c(N)nc(-c3ccccn3)nc2N)cc1 [Number 19, 5-(4-Methoxybenzyl)-2-(2-pyridinyl)-4,6-pyrimidinediamine] |  |  |  | 36.5 µM | 24.9 µM | 20 µM | 
S=C(SSC(=S)N1CCOCC1)N1CCOCC1 [Number 21, Dimorpholinethiuram disulfide] |  |  |  | 19.8 µM | 3.94 µM | 5.3 µM | 
N#CC(C#N)=NNc1cccc(Cl)c1 [Number 4] |  |  |  | 4.31 µM | 2.85 µM | 3.54 µM | 
O=C(NOCC1CC1)c1ccc(F)c(F)c1Nc1ccc(I)cc1Cl [Number 23] |  |  |  | 10.3 µM | 7.96 µM | 6.21 µM | 
CC(=O)N(C)c1ccc(Nc2nc(NC3CCC3)c3[nH]cnc3n2)cc1 [Number 18, N-(4-{[6-(Cyclobutylamino)-7H-purin-2-yl]amino}phenyl)-N-methylacetamide] |  |  |  | 5.93 µM | 2.53 µM | 3.07 µM | 
Cc1nc(Nc2ncc(C(=O)Nc3c(C)cccc3Cl)s2)cc(N2CCN(CCO)CC2)n1 [Number 20] |  |  |  | 3.74 µM | 1.42 µM | 2.32 µM | 
CC(C)c1cc(N2CCCCC2)nc(-c2ccccn2)n1 [Number 13, 4-Piperidin-1-yl-6-propan-2-yl-2-pyridin-2-ylpyrimidine] |  |  |  | 28.7 µM | 18.7 µM | 6.75 µM | 
C=CCN1C(=O)CS/C1=N\NC(=S)NC [Number 1, 1-methyl-3-[(Z)-(4-oxo-3-prop-2-enyl-1,3-thiazolidin-2-ylidene)amino]thiourea] |  |  |  | > 30 µM | 10 µM | 11.5 µM | 
c1ccc(CNc2cc(-c3ccccc3)nc(-c3ccccn3)n2)cc1 [Number 10, N-benzyl-6-phenyl-2-pyridin-2-ylpyrimidin-4-amine] |  |  |  | 7.73 µM | 6.03 µM | 3.24 µM | 
COc1cc(F)c(F)c(Nc2ccc(I)cc2F)c1NS(=O)(=O)C1(C[C@H](O)CO)CC1 [Number 14, Refametinib] | > 30 µM |  |  |  | > 30 µM | > 30 µM | 
CN(C)S(=O)(=O)c1cc(NC(=O)c2ccc([N+](=O)[O-])o2)ccc1Cl [Number 12, N-[4-Chloro-3-(dimethylsulfamoyl)phenyl]-5-nitro-2-furamide] |  |  |  | 11.2 µM | 8.51 µM | 7.09 µM | 
CCOC(=O)CCNc1cc(N2CCc3ccccc3CC2)nc(-c2ccccn2)n1 [Number 17] |  |  |  | 7.69 µM | 6.08 µM | 3.41 µM | 
O=C(NOC[C@H](O)CO)c1ccc(F)c(F)c1Nc1ccc(I)cc1F [Number 24, Mirdametinib, reference compound] |  |  |  |  |  |  | strong effect sizes
Cn1c(/C=C/c2ccc([N+](=O)[O-])o2)nc2ccccc2c1=O [Number 5, 3-Methyl-2-[(E)-2-(5-nitro-2-furyl)vinyl]-4(3H)-quinazolinone] |  |  |  | 4.01 µM | 2.64 µM | 2.39 µM | 
COc1cc(NC(=O)c2ccc([N+](=O)[O-])o2)cc(C(F)(F)F)c1 [Number 9, N-[3-Methoxy-5-(trifluoromethyl)phenyl]-5-nitro-2-furamide] | 18.4 µM |  |  |  | 15.5 µM | 15 µM | 
Fc1ccccc1-c1cc(NCCc2c[nH]c3ccccc23)nc(-c2ccccn2)n1 [Number 11, 6-(2-Fluorophenyl)-N-[2-(1H-indol-3-yl)ethyl]-2-(2-pyridinyl)-4-pyrimidinamine] |  |  |  | 9.68 µM | 6.43 µM | 3.05 µM | 
O=c1c2ccccc2nc(/C=C/c2ccc([N+](=O)[O-])o2)n1-c1ccc(O)cc1 [Number 6, 3-(4-Hydroxyphenyl)-2-[(E)-2-(5-nitro-2-furyl)vinyl]-4(3H)-quinazolinone] |  |  |  | 4.49 µM | 2.98 µM | 3.17 µM | 
Cc1c(Cl)cccc1Nc1ncnc2cc(Cl)ccc12 [Number 3, 7-Chloro-N-(3-chloro-2-methylphenyl)-4-quinazolinamine] |  |  |  | > 30 µM | 14 µM | > 30 µM | 
O=C(NOC[C@H](O)CO)c1ccc(F)c(F)c1Nc1ccc(I)cc1F [Number 24, Mirdametinib] |  | 21.8 µM | 80 µM |  |  |  | 
O=C(Nc1ccccc1C(=O)NCc1ccccn1)c1ccc([N+](=O)[O-])o1 [Number 8, 5-Nitro-N-{2-[(2-pyridinylmethyl)carbamoyl]phenyl}-2-furamide] |  |  |  | 24.5 µM | 19.4 µM | 19.4 µM | 
Cn1c(=O)c(F)c(Nc2ccc(I)cc2F)c2c(=O)n(C[C@@H](O)CO)cnc21 [Number 25, Tak-733, reference compound] |  |  |  |  |  |  | strong effect sizes
COc1cc2ncnc(Nc3cccc(Cl)c3C)c2cc1OC [Number 7, N-(3-Chloro-2-methylphenyl)-6,7-dimethoxy-4-quinazolinamine] |  |  |  | > 30 µM | 12.1 µM | 17 µM | 
N#CC(C#N)=NNc1ccc(OC(F)(F)F)cc1 [Number 22] |  |  |  | 4.12 µM | 2.42 µM | 2.89 µM | 
